# Test results reported in PubChem BioAssay AID1552 (Sanford-Burnham Center for Chemical Genomics, 2009).
# Activity calls are given as the source filed them. The rule behind the calls is not given here.
# Target: Ubiquitin-conjugating enzyme E2 N (Homo sapiens) (UniProt P61088)
# Assay: NMR detection of UBE2N ligand binding – biophysical, purified protein (AID 1552)
# Settings: NMR binding to purified UBE2N
# Sequence of Ubiquitin-conjugating enzyme E2 N (Homo sapiens) (P61088 whole entry, looked up): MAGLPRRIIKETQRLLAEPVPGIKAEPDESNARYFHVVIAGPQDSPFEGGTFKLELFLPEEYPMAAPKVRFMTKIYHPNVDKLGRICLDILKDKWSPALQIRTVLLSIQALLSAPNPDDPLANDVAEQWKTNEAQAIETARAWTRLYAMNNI
row,Compound,Kd
1,CSc1nc2nc(C)cc(=O)n2[nH]1,> 4 mM (inactive)
2,Cc1cc(-c2ccc(Cl)cc2)n2nc(N)nc2n1,> 4 mM (inactive)
3,CC[C@H](/C=C/C(C)C1CCC2C3CCC4=CC(=O)CC[C@]4(C)C3CC[C@]12C)C(C)C (stereo partly specified),> 4 mM (inactive)
4,CC(C)(O)[C@@H]1[C@H]2OC(=O)[C@@H]1[C@]1(O)C[C@H]3O[C@]34C(=O)O[C@H]2[C@]14C,> 4 mM (inactive)
5,CN(Cc1nc2ccccc2n1C)C(=O)c1cccs1,> 4 mM (inactive)
6,Cc1ccn(S(=O)(=O)c2ccc(F)cc2)n1,> 4 mM (inactive)
7,COc1cc2c(cc1OC)[C@@H]1C(=O)c3ccc(O)c(CC=C(C)C)c3O[C@@H]1CO2,> 4 mM (inactive)
8,CCOC(=O)CC1Sc2ccccc2NC1=O (stereo unspecified),> 4 mM (inactive)
9,COCC(=O)Nc1cccc(Br)c1,> 4 mM (inactive)
10,CCOC(=O)CC1Sc2ccccc2NC1=S (stereo unspecified),> 4 mM (inactive)
11,O=C(O)CC12CC3CC(CC(O)(C3)C1)C2,> 4 mM (inactive)
12,O=C(O)C1CCCCN1Cc1ccccc1 (stereo unspecified),> 4 mM (inactive)
13,COC(=O)C1=C(C)N(Cc2ccco2)C(=O)C1,> 4 mM (inactive)
14,CC(CCC(=O)O)[C@H]1CCC2C3CC[C@@H]4CCCC[C@]4(C)C3CC[C@@]21C (stereo partly specified),> 4 mM (inactive)
15,c1cncc(Cn2cccc2)c1,> 4 mM (inactive)
16,COc1ccc(-c2cc(=O)c3cc(OC)ccc3o2)cc1,> 4 mM (inactive)
17,CCOC(=O)c1sc(SC)c2c1CCCC2O (stereo unspecified),> 4 mM (inactive)
18,CN1C2CCC1CC(OC(=O)C(CO)c1ccccc1)C2 (stereo unspecified),> 4 mM (inactive)
19,CCOc1ccc2ccccc2c1C(=O)N1CCOCC1,> 4 mM (inactive)
20,Cn1cnnc1SCCCNC(=O)Nc1ncccn1,> 4 mM (inactive)
21,C=C(C)[C@@H]1[C@H]2OC(=O)[C@@H]1[C@]1(O)C[C@H]3O[C@]34C(=O)O[C@H]2[C@]14C,> 4 mM (inactive)
22,CSc1ccc(C(=S)N2CCN(C)CC2)cc1,> 4 mM (inactive)
23,O=c1c(O)c(-c2ccc(O)cc2O)oc2cc(O)cc(O)c12,> 4 mM (inactive)

row,Compound,Kd
1,Cc1ccc(CCC(N)=O)o1,> 4 mM (inactive)
2,COc1cc(NC(=O)c2ccccc2)c(C)cc1N,> 4 mM (inactive)
3,COc1ccccc1NC(=O)C1CCC(=O)N1 (stereo unspecified),> 4 mM (inactive)
4,S=C(Nc1ccccc1)Nc1nncs1,> 4 mM (inactive)
5,COC(=O)c1ccc(NC(=O)CC2NCCNC2=O)cc1 (stereo unspecified),> 4 mM (inactive)
6,c1ccc(Cc2nn3c(-c4ccncc4)nnc3s2)cc1,> 4 mM (inactive)
7,CNc1nnc(Cc2csc(N)n2)s1,> 4 mM (inactive)
8,Cn1c(SCC(=O)NCCO)nc2ccccc2c1=O,> 4 mM (inactive)
9,NC(=O)c1ccccc1NC(=O)c1cccnc1,> 4 mM (inactive)
10,c1ccc(C[N+]23CCN(CC2)CC3)cc1,> 4 mM (inactive)
11,Cc1cccc(NC(=O)c2ccc(=O)[nH]n2)c1,> 4 mM (inactive)
12,Nc1cccc(OC(F)(F)F)c1,> 4 mM (inactive)
13,S=C(c1ccc(N2CCOCC2)cc1)N1CCOCC1,> 4 mM (inactive)
14,Cc1nc(NC2=NCCC(=O)N2)nc2ccccc12,> 4 mM (inactive)
15,Cc1cc(=O)n2ccc(CN3CCOCC3)c(O)c2n1,> 4 mM (inactive)
16,COC(=O)C[C@H]1C2(C)CC34OC5(C)O[C@@]6([C@H](OC(C)=O)C(OC(C)=O)[C@]7(C)C(/C(=C(/O)C(C)C)C(=O)O[C@H]7c7ccoc7)[C@@]6(O5)[C@H](OC(C)=O)[C@@]3(O)C2OC(=O)C(C)C)[C@]14C (stereo partly specified),> 4 mM (inactive)
17,O=CN1CCN(C2CC(=O)N(c3ccccc3)C2=O)CC1 (stereo unspecified),> 4 mM (inactive)
18,CC(=O)OC(C)(C)[C@@H]1Cc2cc3ccc(=O)oc3cc2O1,> 4 mM (inactive)
19,Cn1c(=O)n(C)c2cc(C(N)=O)ccc21,> 4 mM (inactive)
20,C=C1C2CC[C@H]3[C@]4(C)C[C@H](OC5OC(CO)C(OS(=O)(=O)O)C(OS(=O)(=O)O)C5OC(=O)CC(C)C)C[C@@H](C(=O)O)[C@H]4CC[C@]3(C2)[C@H]1O (stereo partly specified),> 4 mM (inactive)
21,COc1cc2c(cc1OC)C1=C(C#N)CCC(=O)N1CC2,> 4 mM (inactive)
22,O=C1CCCC(=O)N1c1ccc(O)cc1,> 4 mM (inactive)
23,O=c1[nH]cc(NCc2ccccc2)c(=O)[nH]1,> 4 mM (inactive)

row,Compound,Kd
1,O=C(O)Cn1c(=O)sc2ccccc21,> 4 mM (inactive)
2,CN1CCC(N(C)Cc2cccnc2)CC1,> 4 mM (inactive)
3,CC(C)CC(=O)Nc1c[nH]c(=O)[nH]c1=O,> 4 mM (inactive)
4,Cn1[nH]c(C(F)(F)F)cc1=O,> 4 mM (inactive)
5,O=c1[nH]oc2ccccc12,> 4 mM (inactive)
6,O=C(O)C1CSC(c2ccccc2)N1 (stereo unspecified),> 4 mM (inactive)
7,Cc1n[nH]c(C)c1NC(=O)c1cccc(F)c1,> 4 mM (inactive)
8,O=C(O)CCCCC1SCC2NC(=O)NC21 (stereo unspecified),> 4 mM (inactive)
9,Cc1noc(-c2ccccc2)c1CO,> 4 mM (inactive)
10,O=C(/C=C(\O)c1ccccc1)c1ccccc1O,> 4 mM (inactive)
11,Cc1sc2nc(SCC(=O)N(C)C)[nH]c(=O)c2c1C,> 4 mM (inactive)
12,CN1C(=O)/C(=C/c2ccc(O)cc2O)SC1=S,> 4 mM (inactive)
13,Clc1ncnc2[nH]ncc12,> 4 mM (inactive)
14,CC12CN([N+](=O)[O-])C3(C(N)=O)CC1CCC23C (stereo unspecified),> 4 mM (inactive)
15,Cc1cc(C)cc(C(=O)N2CCC(C(N)=O)CC2)c1,> 4 mM (inactive)
16,Cc1c(N=Cc2ccc[nH]2)c(=O)n(-c2ccccc2)n1C,> 4 mM (inactive)
17,O=c1[nH]cnc2nc[nH]c12,> 4 mM (inactive)
18,Cc1noc(C)c1C(=O)Nc1cccnc1,> 4 mM (inactive)
19,COc1ccc(/C=C2/SC(N)=NC2=O)c(OC)c1,> 4 mM (inactive)
20,Cc1cc(NC(=O)c2cccc(N3C(=O)CCC3=O)c2)no1,> 4 mM (inactive)
21,COc1ccccc1NC(=O)NC(N)=O,> 4 mM (inactive)
22,COc1ccc2c(c1)OC[C@@H](Cc1ccc(OC)c(OC)c1)[C@H]2O,> 4 mM (inactive)
23,COC1(C)CCC2OC2(C)CCC2C1CC2(C)C (stereo unspecified),> 4 mM (inactive)

row,Compound,Kd
1,NC(=O)C1CCN(CC2CC=CCC2)CC1 (stereo unspecified),> 4 mM (inactive)
2,Cn1nnc2cc(CN)ccc21,> 4 mM (inactive)
3,O=C(c1ccccc1)N1CCOCC1,> 4 mM (inactive)
4,O=C(Nc1nncs1)Oc1ccccc1,> 4 mM (inactive)
5,CC(C)Nc1nc2n(c(=O)n1)CCN2C(C)C,> 4 mM (inactive)
6,CC1(C)CC2(CCO1)NCCN1C(=O)CSC12 (stereo unspecified),> 4 mM (inactive)
7,Cc1nnc2n(c1=O)N=C(c1ccccc1)CS2,> 4 mM (inactive)
8,COc1ccc2c(c1)OCC(Cc1ccc(OC)c(OC)c1)C2=O (stereo unspecified),> 4 mM (inactive)
9,O=C(O)Cn1cc(C(=O)C2CC2)c2ccccc21,> 4 mM (inactive)
10,NC(=O)CNC(=O)c1ccc2ccccc2n1,> 4 mM (inactive)
11,Cc1c(C(=O)Nc2ccncc2)oc2c1C(=O)CC(C)(C)C2,> 4 mM (inactive)
12,O=C(Nc1ccon1)c1cccc(C(F)(F)F)c1,> 4 mM (inactive)
13,COc1cc(C(C)=O)ccc1OCC(O)Cn1ccnc1 (stereo unspecified),> 4 mM (inactive)
14,CCC[C@H]1CC2=C(C[C@@H](CC)CC3=C1C(=O)OC3=O)C(=O)OC2=O,> 4 mM (inactive)
15,CC(=O)NC(=S)Nc1ccc(S(N)(=O)=O)cc1,> 4 mM (inactive)
16,CC1O[C@@H](Oc2c(-c3ccc(O)c(O)c3)oc3cc(O)cc(O)c3c2=O)[C@H](O)[C@H](O)[C@H]1O (stereo partly specified),> 4 mM (inactive)
17,COc1ccc2cc3[n+](cc2c1OC)CCc1cc2c(cc1-3)OCO2,> 4 mM (inactive)
18,CC(O)c1ccc(C(C)O)cc1 (stereo unspecified),> 4 mM (inactive)
19,COc1cc(C)c(Cl)cc1S(=O)(=O)N(C)C,> 4 mM (inactive)
20,Cc1ccc(F)cc1NC(=O)c1ccc2c(c1)OCO2,> 4 mM (inactive)
21,OCC(O)Cc1ccc2c(c1)OCO2 (stereo unspecified),> 4 mM (inactive)
22,O=C1NC2NC(=O)N(c3ccccc3)C2N1 (stereo unspecified),> 4 mM (inactive)
23,O=C(CSc1ccccc1)N1CCC2(CC1)OCCO2,> 4 mM (inactive)

row,Compound,Kd
1,O=C1CNC(=O)N1c1cccc(Cl)c1,> 4 mM (inactive)
2,Fc1ccc(NC2=NCCS2)cc1Cl,> 4 mM (inactive)
3,O=C(CSc1ncn[nH]1)c1ccccc1,> 4 mM (inactive)
4,Cc1sc2nc(-c3ccco3)oc(=O)c2c1C,> 4 mM (inactive)
5,CCOC(=O)C1CCN(c2ncnc3nc[nH]c23)CC1,> 4 mM (inactive)
6,O=C(O)CN1C(=O)c2cccc([N+](=O)[O-])c2C1=O,> 4 mM (inactive)
7,C[C@H]1O[C@@H](O[C@H]2[C@@H](O)C[C@H](O[C@H]3[C@@H](O)C[C@H](O[C@H]4CC[C@]5(C)C6CC[C@]7(C)[C@@H](C8=CC(=O)OC8)CC[C@]7(O)C6CC[C@@H]5C4)O[C@@H]3C)O[C@@H]2C)C[C@H](O)[C@@H]1O (stereo partly specified),> 4 mM (inactive)
8,COc1ccc2c(c1OC)C(=O)OC2[C@H]1c2c(cc3c(c2OC)OCO3)CCN1C (stereo partly specified),> 4 mM (inactive)
9,CC(C)/C(O)=C1/C(=O)O[C@@H](c2ccoc2)[C@]2(C)C(O)[C@@H](O)[C@@]34OC5(C)OC67CC(C)(C(O)[C@]6(O)[C@@H](O)[C@]3(O5)C12)[C@H](CC(=O)O)[C@]74C (stereo partly specified),> 4 mM (inactive)
10,CC(=O)O[C@@H]1CC2C(C)(C)[C@H](O)CC[C@]2(C)C2CC[C@@]3(C)[C@H](c4ccoc4)OC(=O)C4OC43[C@@]21C (stereo partly specified),> 4 mM (inactive)
11,Cc1[nH]ccc2c1[nH]c1cc(=O)ccc12,> 4 mM (inactive)
12,C=C(C)C1Cc2c(ccc(C(=O)O)c2O)O1 (stereo unspecified),> 4 mM (inactive)
13,OCC1Cc2ccccc2CN1 (stereo unspecified),> 4 mM (inactive)
14,COc1cccc(-c2csc(NC(C)=O)n2)c1,> 4 mM (inactive)
15,COc1cc2c(cc1OC)C(=O)OC2,> 4 mM (inactive)
16,CC(C)(O)P(C)(=O)c1ccccc1 (stereo unspecified),> 4 mM (inactive)
17,c1ccc2[nH]c(NCCN3CCOCC3)nc2c1,> 4 mM (inactive)
18,C/C=C(\C)C(=O)O[C@@H]1c2c(ccc3ccc(=O)oc23)OC(C)(C)[C@@H]1OC(C)=O,> 4 mM (inactive)
19,COc1ccc(-c2coc3cc(OC)cc(OC)c3c2=O)cc1,> 4 mM (inactive)
